Data: article PMC9964319, “Half-Sandwich Rhodium Complexes with Releasable N-Donor Monodentate Ligands: Solution Chemical Properties and the Possibility for Acidosis Activation” (Pharmaceutics, 2023)
In brackets after ≈: the same amount, converted by molar mass. Read-outs that look alike come from different tables or passages of the source.

What was measured:
Assay type in all cases: cell-based
[1] = test system: Colo205 human colon adenocarcinoma cell line (doxorubicin-sensitive); assay: MTT assay, cytotoxicity at pH 6 and 7; conditions: Colo205, 72 h incubation, read-out: IC50
Procedure: (§1) All cell culture reagents were obtained from Sigma-Aldrich (Merck KGaA, Darmstadt, Germany) and plasticware from Sarstedt (Nümbrecht, Germany). Human colonic adenocarcinoma cell lines Colo205 (catalog number: ATCC-CCL-222) and its doxorubicin-resistant counterpart Colo320 (catalog number: ATCC-CCL-220.1) were purchased from LGC Promochem (Teddington, UK). The cells were cultured in RPMI 1640 medium supplemented with 10% heat-inactivated fetal bovine serum, 2 mM L-glutamine, 1 mM sodium pyruvate, and 100 mM HEPES buffer, adjusting the pH to 6.0 or 7.0. The cells were incubated at 37 °C in a 5% CO2–95% air atmosphere. The semiadherent human colon cancer cells were detached with Trypsin-Versene solution for 5 min at 37 °C.
(§2) The solutions were freshly prepared prior to measurements (see Section 2.1). […] Firstly, these samples were diluted in complete culture medium; then, two-fold serial dilutions of the compounds were prepared in 100 μL of RPMI 1640, horizontally. The semiadherent colonic adenocarcinoma cells were treated with Trypsin-Versene solution. They were adjusted to a density of 1 × 10^4 cells in 100 μL of RPMI 1640 medium and were added to each well, with the exception of the medium control wells. The final volume of the wells containing compounds and cells was 200 μL. Samples were triplicated. The pH of the medium was adjusted to 6.0 or 7.0.
(§3) The culture plates were incubated at 37 °C for 72 h; at the end of the incubation period, 20 μL of MTT solution (from a stock solution of 5 mg/mL) was added to each well. After incubation at 37 °C for 4 h, 100 μL of SDS solution (10% in 0.01 M HCI) was added to each well, and the plates were further incubated at 37 °C overnight. Cell growth was determined by measuring the optical density (OD) at 540/630 nm with a Multiscan EX ELISA reader (Thermo Labsystems, Cheshire, WA, USA). […] Curves were fitted using GraphPad Prism software (2022, version 9.4.1, Graphpad Software (LLC) d.b.a Dotmatics, San Diego, CA, USA) using the sigmoidal dose–response model (comparing variable and fixed slopes).
(§4) The pH-dependent solution speciation of the selected mixed-ligand complexes is an important feature in the hypothesized mechanism of action, and the modeling of acidosis is necessary for the in vitro anticancer assays. In order to find out the cytotoxicity difference based on the pH of the medium, cytotoxic activity was determined at pH 6 and 7 by MTT assay in two human colon adenocarcinoma cell lines (doxorubicin-sensitive Colo205 and doxorubicin-resistant Colo320). […] The mixed-ligand complexes were prepared prior to the measurements, as was already described in Section 2.1. With this method, the effect of the different counter ions could be avoided, and a more adequate comparison of the mixed-ligand complexes could be conducted.

[2] = test system: Colo320 human colon adenocarcinoma cell line (doxorubicin-resistant); assay: MTT assay, cytotoxicity at pH 6 and 7; conditions: Colo320, 72 h incubation, read-out: IC50
Procedure: as §1, §2, §3, §4

[3] = test system: E. coli 32313 (resistant); assay: Antibacterial assay, MIC in 96-well plates at different pH; conditions: E. coli resistant, after one day, read-out: MIC
Text: (§5) The antibacterial effect was studied in two Gram-positive and in two Gram-negative strains. The Gram-positive S. aureus ATCC 25923 (ATCC, Manassas, VA, USA) is a methicillin-susceptible reference bacterial strain, while S. aureus 272123 is a clinical isolate and resistant to methicillin and ofloxacin (MRSA), which was given by Prof. Dr. Leonard Amaral (Institute of Hygiene and Tropical Medicine, Lisbon, Portugal). The Gram-negative strains were E. coli ATCC 25922 (ATCC, Manassas, VA, USA), which is sensitive to antibiotics, and E. coli 32313 (provided by the Institute of Clinical Microbiology, University of Szeged, Hungary), which is resistant to different antibiotics (trimethoprim/sulfamethoxazole, gentamicin, ciprofloxacin, and norfloxacin).
(§6) The minimum inhibitory concentrations (MICs) of the compounds were determined in 96-well plates based on the Clinical and Laboratory Standard Institute guidelines. The compounds were diluted in 100 μL of Mueller Hinton broth. Then, an overnight bacterial culture diluted 10,000 times in 100 μL of medium was added to each well, with the exception of the medium control wells. For each strain and each tested compound, four pH values were set (5, 6, 7, and 8). Each sample was triplicated.

[4] = test system: E. coli ATCC 25922 (sensitive); assay: as above; conditions: E. coli sensitive, after one day, read-out: MIC
Text: as §5, §6

S. aureus 272123 (MRSA) = assay: as above; conditions: Staphylococcus aureus, 24 h, read-out: MIC
Text: as §5, §6

[5] = test system: S. aureus ATCC 25923 (methicillin-susceptible); assay: as above; conditions: Staphylococcus aureus, ATCC25923, 24 h, S. aureus sensitive, after one day, read-out: MIC
Text: as §5, §6

[6] = Escherichia coli, ATCC25922, 24 h, pH 5
[7] = Escherichia coli, ATCC25922, 24 h, pH 6
[8] = Escherichia coli, ATCC25922, 24 h, pH 7
[9] = Escherichia coli, ATCC25922, 24 h, pH 8

Row | SMILES | MIC ([3]; Escherichia coli, 24 h, pH 5) | MIC ([3]; Escherichia coli, 24 h, pH 6) | MIC ([3]; Escherichia coli, 24 h, pH 7) | MIC ([3]; Escherichia coli, 24 h, pH 8) | MIC [4, 6] | MIC [4, 7] | MIC [4, 8] | MIC [4, 9] | MIC (S. aureus 272123 (MRSA); pH 5, after one day) | MIC (S. aureus 272123 (MRSA); pH 6, after one day) | MIC (S. aureus 272123 (MRSA); pH 7, after one day) | MIC (S. aureus 272123 (MRSA); pH 8, after one day) | MIC ([5]; pH 7) | MIC ([5]; pH 8) | further results
1 | CC1=C(C)C(C)C(C)=C1C.Cn1ccnc1.[Rh+3].c1cnc2c(c1)ccc1cccnc12 [[RhCp*(phen)(mim)]^2+] |  |  |  |  |  |  |  |  |  |  |  |  |  |  | IC50 ([1]; pH 6): > 100 µM; IC50 ([1]; pH 7): > 100 µM; IC50 ([2]; pH 6): 71.7 ± 3.3 µM; IC50 ([2]; pH 7): > 100 µM
2 | COc1cccc2c1C(=O)c1c(O)c3c(c(O)c1C2=O)C[C@@](O)(C(=O)CO)C[C@@H]3O[C@H]1C[C@H](N)[C@H](O)[C@H](C)O1 [doxorubicin, reference compound] |  |  |  |  |  |  |  |  |  |  |  |  |  |  | IC50 ([1]; Homo sapiens, COLO 205, pH 6): 7.6 ± 0.3 µM; IC50 ([1]; Homo sapiens, COLO 205, pH 7): 0.71 ± 0.02 µM; IC50 ([2]; Homo sapiens, COLO 320, pH 6): 0.46 ± 0.02 µM
3 | Clc1ccc(COC(Cn2ccnc2)c2ccc(Cl)cc2Cl)cc1 (centres unmarked) [econ, econazole, reference compound] | > 100 µM | > 100 µM | > 100 µM | > 100 µM | > 100 µM | > 100 µM | > 100 µM | > 100 µM | 25 µM (≈ 9.54 µg/mL) | 12.5 µM (≈ 4.77 µg/mL) | 6.25 µM (≈ 2.39 µg/mL) | 3.12 µM (≈ 1.19 µg/mL) | 0.78 µM (≈ 0.298 µg/mL) | 0.19 µM (≈ 0.0725 µg/mL) | MIC ([3]; pH 6): >100 µM; MIC ([3]; pH 7): >100 µM; MIC ([4]; pH 6): >100 µM; MIC ([4]; pH 7): >100 µM
4 | c1cnc2c(c1)ccc1cccnc12 [phen, 1,10-phenanthroline, reference compound] | 50 µM (≈ 9.01 µg/mL) | 50 µM (≈ 9.01 µg/mL) | 50 µM (≈ 9.01 µg/mL) | 50 µM (≈ 9.01 µg/mL) | 50 µM (≈ 9.01 µg/mL) | 50 µM (≈ 9.01 µg/mL) | 50 µM (≈ 9.01 µg/mL) | 25 µM (≈ 4.51 µg/mL) | 50 µM (≈ 9.01 µg/mL) | > 100 µM | > 100 µM | > 100 µM | > 100 µM | > 100 µM | 
5 | O=P(O)(O)C(O)(Cn1ccnc1)P(=O)(O)O [zol, zoledronic acid, reference compound] | > 100 µM | > 100 µM | > 100 µM | > 100 µM | > 100 µM | > 100 µM | > 100 µM | > 100 µM | > 100 µM | > 100 µM | > 100 µM | > 100 µM | > 100 µM | > 100 µM | 
